In patent publication US20250129078A1, “ERBB2 INHIBITORS” (Cogent Biosciences, Inc., priority 2023, published 2025) one finds IC50 data, which are given here for 26 molecules.

The experiment addresses EGFR WT (Homo sapiens (Human), UniProt P00533). As to the kind of experiment: ErbB enzyme assay (CisBio HTRF-KinEASE-TK), EGFR WT. In kind it is biochemical. The conditions noted are these: ATP at Km (25 μM), 1 h incubation. Summed up:
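Three-fold DMSO serial dilutions were added to kinase reactions and incubated 1 h at room temperature. Quench used 62.5 nM Sa-XL665 plus 0.25×TK-Ab-Cryptate in detection buffer, followed by another 1 h. Substrate phosphorylation was then measured by dual-wavelength HTRF.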

pIC50: −log10 of the molar value.

Sequence of EGFR WT (P00533 25-1210): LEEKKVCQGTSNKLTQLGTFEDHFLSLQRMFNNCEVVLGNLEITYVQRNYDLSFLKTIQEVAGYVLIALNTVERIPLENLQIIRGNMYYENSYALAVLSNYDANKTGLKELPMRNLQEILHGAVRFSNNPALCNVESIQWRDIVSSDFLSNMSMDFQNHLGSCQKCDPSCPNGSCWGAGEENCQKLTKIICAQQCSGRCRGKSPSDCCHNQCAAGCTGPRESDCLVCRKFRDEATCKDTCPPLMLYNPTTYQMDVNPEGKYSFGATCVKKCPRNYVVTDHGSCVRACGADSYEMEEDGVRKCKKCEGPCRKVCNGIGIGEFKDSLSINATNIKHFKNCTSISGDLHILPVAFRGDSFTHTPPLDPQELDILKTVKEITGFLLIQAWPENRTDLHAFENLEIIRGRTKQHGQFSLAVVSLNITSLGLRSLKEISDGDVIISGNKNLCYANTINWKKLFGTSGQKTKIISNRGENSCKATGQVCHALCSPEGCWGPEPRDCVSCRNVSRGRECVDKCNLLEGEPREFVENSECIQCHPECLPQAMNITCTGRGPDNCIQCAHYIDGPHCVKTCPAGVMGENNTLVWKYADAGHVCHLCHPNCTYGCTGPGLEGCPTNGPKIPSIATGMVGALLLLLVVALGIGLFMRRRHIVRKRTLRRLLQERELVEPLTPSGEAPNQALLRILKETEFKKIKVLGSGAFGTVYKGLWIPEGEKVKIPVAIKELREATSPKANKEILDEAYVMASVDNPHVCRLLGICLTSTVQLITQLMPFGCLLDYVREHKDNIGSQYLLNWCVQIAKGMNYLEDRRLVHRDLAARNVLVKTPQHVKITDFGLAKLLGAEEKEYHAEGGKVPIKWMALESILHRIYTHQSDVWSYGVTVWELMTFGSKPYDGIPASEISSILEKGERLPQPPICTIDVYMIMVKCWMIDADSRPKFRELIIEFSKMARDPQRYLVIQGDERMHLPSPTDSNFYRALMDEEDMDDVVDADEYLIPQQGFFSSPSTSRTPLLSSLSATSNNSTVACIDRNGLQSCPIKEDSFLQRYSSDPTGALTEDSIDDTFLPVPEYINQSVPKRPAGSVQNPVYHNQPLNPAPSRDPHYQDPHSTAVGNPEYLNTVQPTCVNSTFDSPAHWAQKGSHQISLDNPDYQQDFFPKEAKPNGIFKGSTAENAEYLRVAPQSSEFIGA

For the molecule `[2H]C1([2H])N(C(=O)C=C)C([2H])([2H])C([2H])([2H])N(c2ncc3ncnc(Nc4ccc(Oc5ccc6c(c5)nnn6C)c(C)c4)c3n2)C1([2H])[2H]` [Compound 36, 1-(4-(8-((3-methyl-4-((1-methyl-1H-benzo[d][1,2,3]triazol-5-yl)oxy)phenyl)amino)pyrimido[5,4-d]pyrimidin-2-yl)piperazin-1-yl-2,2,3,3,5,5,6,6-d8)prop-2-en-1-one], the pIC50 was more than 7.30.

On to `C=CC(=O)N1CCN(c2ccc3ncnc(Nc4ccc(Oc5cnc6ccnn6c5)c(C)c4)c3n2)CC1` [Compound 319, 1-(4-(4-((3-methyl-4-(pyrazolo[1,5-a]pyrimidin-6-yloxy)phenyl)amino)pyrido[3,2-d]pyrimidin-6-yl)piperazin-1-yl)prop-2-en-1-one], for which the pIC50 is more than 7.30. With `C=CC(=O)N1CCN(c2ccc3ncnc(Nc4cc(F)c(Oc5ccc6c(c5)nnn6C)c(Cl)c4)c3n2)C[C@H]1C` [Compound 252, (R)-1-(4-(4-((3-chloro-5-fluoro-4-((1-methyl-1H-benzo[d][1,2,3]triazol-5-yl)oxy)phenyl)amino)pyrido[3,2-d]pyrimidin-6-yl)-2-methylpiperazin-1-yl)prop-2-en-1-one] the figure was 7.00 to 7.30. `C=CC(=O)N1CC(Oc2ncc3ncnc(Nc4ccc(Oc5ccc6c(c5)ncn6C)c(C)c4)c3n2)C1` [Compound 383, 1-(3-((8-((3-methyl-4-((1-methyl-1H-benzo[d]imidazol-5-yl)oxy)phenyl)amino)pyrimido[5,4-d]pyrimidin-2-yl)oxy)azetidin-1-yl)prop-2-en-1-one] gave a pIC50 of more than 7.30. The figure for `C=C(COC)C(=O)N1C2CC1CN(c1ncc3ncnc(Nc4ccc(Oc5ccc6c(c5)nnn6C)c(C)c4)c3n1)C2` [Compound 213, 2-(methoxymethyl)-1-(3-(8-((3-methyl-4-((1-methyl-1H-benzo[d][1,2,3]triazol-5-yl)oxy)phenyl)amino)pyrimido [5,4-d]pyrimidin-2-yl)-3,6-diazabicyclo[3.1.1]heptan-6-yl)prop-2-en-1-one] is not above 6.00; for `C=CC(=O)N1CCN(c2ncc3ncnc(Nc4ccc(Oc5cc(F)c6c(c5)ncn6C)c(C)c4)c3n2)CC[C@@H]1C` [Compound 179, (S)-1-(4-(8-((4-((7-fluoro-1-methyl-1H-benzo[d]imidazol-5-yl)oxy)-3-methylphenyl)amino)pyrimido[5,4-d]pyrimidin-2-y1)-7-methyl-1,4-diazepan-1-yl)prop-2-en-1-one] it is 6.30 to 7.00; for `C=CC(=O)N[C@H]1CN(c2ncc3ncnc(Nc4ccc(Oc5ccc6c(c5)nnn6C)c(C)c4F)c3n2)CC[C@@H]1C` [Compound 229, N-((3R,4S)-1-(8-((2-fluoro-3-methyl-4-((1-methyl-1H-benzo[d][1,2,3]triazol-5-yl)oxy)phenyl)amino)pyrimido[5,4-d]pyrimidin-2-yl)-4-methylpiperidin-3-yl)acrylamide] it is 6.30 to 7.00. Molecule `C=CC(=O)N[C@H]1CN(c2ccc3ncnc(Nc4ccc(Oc5ccc6c(c5)nnn6C)c(C)c4F)c3n2)CC[C@@H]1C` [Compound 350, N-((3R,4S)-1-(4-((2-fluoro-3-methyl-4-((1-methyl-1H-benzo[d][1,2,3]triazol-5-yl)oxy)phenyl)amino)pyrido[3,2-d]pyrimidin-6-yl)-4-methylpiperidin-3-yl)acrylamide] had a pIC50 of 6.30 to 7.00.

Regarding `Cc1cc(Nc2ncnc3ccc(N4CCN(C(=O)/C=C/C(F)F)[C@H](C)C4)nc23)ccc1Oc1ccc2c(c1)nnn2C` [Compound 368, (R,E)-4,4-difluoro-1-(2-methyl-4-(4-((3-methyl-4-((1-methyl-1H-benzo[d][1,2,3]triazol-5-yl)oxy)phenyl)amino)pyrido[3,2-d]pyrimidin-6-yl)piperazin-1-yl)but-2-en-1-one], the pIC50 is 7.00 to 7.30. The figure for `C=CC(=O)N1CCN(c2ncc3ncnc(Nc4ccc(Oc5ccc6c(c5)nnn6C)c(C)c4)c3n2)C[C@H]1CF` (single isomer, unassigned) [Compound 198] is 6.30 to 7.00; for `C=CC(=O)N1CCC(Oc2ncc3ncnc(Nc4ccc(Oc5ccc6c(c5)ncn6C)c(C)c4)c3n2)CC1` [Compound 378, 1-(4-((8-((3-methyl-4-((1-methyl-1H-benzo[d]imidazol-5-yl)oxy)phenyl)amino)pyrimido[5,4-d]pyrimidin-2-yl)oxy)piperidin-1-yl)prop-2-en-1-one] it is 7.00 to 7.30; for `C=CC(=O)N[C@@H]1CN(c2ccc3ncnc(Nc4ccc(Oc5ccc6c(c5)nnn6C)c(C)c4F)c3n2)CC[C@H]1C` (single isomer, unassigned) [Compound 347] it is 6.30 to 7.00. With `C=CC(=O)N[C@@H]1CCN(c2ccc3ncnc(Nc4ccc(Oc5ccc6c(c5)nnn6C)c(C)c4F)c3n2)C[C@@H]1F` [Compound 279, N-((3S,4R)-3-fluoro-1-(4-((2-fluoro-3-methyl-4-((1-methyl-1H-benzo[d][1,2,3]triazol-5-yl)oxy)phenyl)amino)pyrido[3,2-d]pyrimidin-6-yl)piperidin-4-yl)acrylamide] the figure was 6.00 to 6.30; with `C=CC(=O)N1CCN(c2ncc3ncnc(Nc4ccc(Oc5ccc6c(c5)nnn6C)c(F)c4F)c3n2)CC1` [Compound 44, 1-(4-(8-((2,3-difluoro-4-((1-methyl-1H-benzo[d][1,2,3]triazol-5-yl)oxy)phenyl)amino)pyrimido[5,4-d]pyrimidin-2-yl)piperazin-1-yl)prop-2-en-1-one], 7.00 to 7.30; with `C=CC(=O)N[C@@H]1CCCN(c2ncc3ncnc(Nc4ccc(Oc5ccc6c(c5)nnn6C)c(C)c4)c3n2)C1` [Compound 125, (R)-N-(1-(8-((3-methyl-4-((1-methyl-1H-benzo[d][1,2,3]triazol-5-yl)oxy)phenyl)amino)pyrimido [5,4-d]pyrimidin-2-y1)piperidin-3-yl)acrylamide], 6.30 to 7.00. With `C=CC(=O)N1CCN(c2ccc3ncnc(Nc4ccc(Oc5cc6ncnn6cn5)c(C)c4)c3n2)C[C@H]1C` [Compound 329, (R)-1-(4-(4-((4-([1,2,4]triazolo[1,5-c]pyrimidin-7-yloxy)-3-methylphenyl)amino)pyrido[3,2-d]pyrimidin-6-yl)-2-methylpiperazin-1-yl)prop-2-en-1-one] the figure was 7.00 to 7.30.

`C=CC(=O)N[C@H]1CN(c2ccc3ncnc(Nc4ccc(Oc5ccc6c(c5)nnn6C)c(C)c4F)c3n2)C[C@H]1F` [Compound 301, N-((3S,4R)-4-fluoro-1-(4-((2-fluoro-3-methyl-4-((1-methyl-1H-benzo[d][1,2,3]triazol-5-yl)oxy)phenyl)amino)pyrido[3,2-d]pyrimidin-6-yl)pyrrolidin-3-yl)acrylamide] gave a pIC50 of 6.00 to 6.30. The figure for `C=C(F)C(=O)N1CCN(c2ccc3ncnc(Nc4ccc(Oc5ccc6c(c5)nnn6C)c(C)c4)c3n2)C[C@@H]1CC#N` [Compound 85, (S)-2-(1-(2-fluoroacryloyl)-4-(4-((3-methyl-4-((1-methyl-1H-benzo[d][1,2,3]triazol-5-yl)oxy)phenyl)amino)pyrido[3,2-d]pyrimidin-6-yl)piperazin-2-yl)acetonitrile] is 6.00 to 6.30; for `C=CC(=O)N[C@@H]1C[C@@H](C)CN(c2ncc3ncnc(Nc4ccc(Oc5ccc6c(c5)nnn6C)c(C)c4F)c3n2)C1` (single isomer, unassigned) [Compound 201] it is not above 6.00. As for `C=CC(=O)N1CCN(c2ncc3ncnc(Nc4ccc(Oc5cc6nnn(C)c6cc5C)c(C)c4)c3n2)CC1` [Compound 136, 1-(4-(8-((4-((1,6-dimethyl-1H-benzo[d][1,2,3]triazol-5-y1)oxy)-3-methylphenyl)amino)pyrimido[5,4-d]pyrimidin-2-yl)piperazin-1-yl)prop-2-en-1-one], the pIC50 was 6.30 to 7.00.

`C=CC(=O)N(C)C1C2CN(c3ncc4ncnc(Nc5ccc(Oc6cc(F)c7c(c6)nnn7C)c(C)c5F)c4n3)CC21` (centres unmarked) [Compound 68, N-(3-(8-((2-fluoro-4-((7-fluoro-1-methyl-1H-benzo[d][1,2,3]triazol-5-yl)oxy)-3-methylphenyl)amino)pyrimido[5,4-d]pyrimidin-2-yl)-3-azabicyclo[3.1.0]hexan-6-yl)-N-methylacrylamide]: the pIC50 was 7.00 to 7.30. The figure for `C=CC(=O)N1CCN(c2ncc3ncnc(Nc4ccc(Oc5ccc6c(c5)nnn6C)c(C)c4)c3n2)C[C@@H]1C(C)C` [Compound 122, (S)-1-(2-isopropyl-4-(8-((3-methyl-4-((1-methyl-1H-benzo[d][1,2,3]triazol-5-yl)oxy)phenyl)amino)pyrimido[5,4-d]pyrimidin-2-yl)piperazin-1-y1)prop-2-en-1-one] is not above 6.00; for `C=CC(=O)N1CCN(c2ccc3ncnc(Nc4ccc(Oc5cc(F)c6c(c5)nnn6C)c(C)c4)c3n2)C[C@H]1C` [Compound 254, (R)-1-(4-(4-((4-((7-fluoro-1-methyl-1H-benzo[d][1,2,3]triazol-5-yl)oxy)-3-methylphenyl)amino)pyrido[3,2-d]pyrimidin-6-yl)-2-methylpiperazin-1-yl)prop-2-en-1-one] it is 7.00 to 7.30.

The molecule `C=CC(=O)N1CCN(c2ccc3ncnc(Nc4ccc(Oc5ccc6c(c5)ncn6C(F)F)c(C)c4F)c3c2)CC1` [Compound 375, 1-(4-(4-((4-((1-(difluoromethyl)-1H-benzo[d]imidazol-5-yl)oxy)-2-fluoro-3-methylphenyl)amino)quinazolin-6-yl)piperazin-1-yl)prop-2-en-1-one] gave a pIC50 of 7.00 to 7.30. With `C=CC(=O)N1CCC(Oc2ncc3ncnc(Nc4ccc(Oc5ccc6c(c5)ncn6C(F)F)c(C)c4)c3n2)CC1` [Compound 380, 1-(4-((8-((4-((1-(difluoromethyl)-1H-benzo[d]imidazol-5-yl)oxy)-3-methylphenyl)amino)pyrimido[5,4-d]pyrimidin-2-y1)oxy)piperidin-1-yl)prop-2-en-1-one] the figure was more than 7.30. With `C=CC(=O)N1CCN(c2ncc3ncnc(Nc4ccc(Oc5ccc6c(c5)nnn6C)c(F)c4F)c3n2)CC1` [Compound 10, 1-(4-(8-((2,3-difluoro-4-((1-methyl-1H-benzo[d][1,2,3]triazol-5-yl)oxy)phenyl)amino)pyrimido[5,4-d]pyrimidin-2-yl)piperazin-1-yl)prop-2-en-1-one] the figure was 6.30 to 7.00.
